According to patent US10717716B2, “1,3,4-oxadiazole derivative compounds as histone deacetylase 6 inhibitor, and the pharmaceutical composition comprising the same” (Chong Kun Dang Pharmaceutical Corp., priority 2015, dated 2020):
pIC50: −log10 of the molar value.

How the values were obtained:
human recombinant HDAC1 = target: T1, human recombinant HDAC1 (Homo sapiens, UniProt Q13547); assay: HDAC1 enzyme activity inhibition assay (HDAC Fluorimetric Drug Discovery Kit); assay type: biochemical; settings: human recombinant HDAC1, Fluor de Lys substrate 10 μM, 30° C. 60 minutes
T1 construct: purchased Enzo Life Science BML-SE456
T1 sequence (Q13547 whole entry): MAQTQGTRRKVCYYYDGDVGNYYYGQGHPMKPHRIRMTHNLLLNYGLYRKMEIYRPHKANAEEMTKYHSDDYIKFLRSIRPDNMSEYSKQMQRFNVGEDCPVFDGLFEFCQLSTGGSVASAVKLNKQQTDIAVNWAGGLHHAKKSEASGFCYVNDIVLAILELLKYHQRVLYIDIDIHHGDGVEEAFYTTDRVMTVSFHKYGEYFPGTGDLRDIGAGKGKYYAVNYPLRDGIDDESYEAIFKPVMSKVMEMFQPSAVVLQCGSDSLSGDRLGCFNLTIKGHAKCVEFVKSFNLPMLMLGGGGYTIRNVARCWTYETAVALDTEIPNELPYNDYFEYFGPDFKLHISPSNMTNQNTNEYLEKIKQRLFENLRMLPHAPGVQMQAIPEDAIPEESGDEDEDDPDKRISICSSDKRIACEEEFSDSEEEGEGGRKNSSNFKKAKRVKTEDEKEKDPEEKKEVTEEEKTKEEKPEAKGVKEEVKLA
Method: In order to examine the HDAC6 selectivity of the compounds of formula I of the present invention by HDAC1 and HDAC6 enzymatic activity inhibition assays, an experiment was performed using a conventional substance as a control.
HDAC enzyme activity was measured using a HDAC Fluorimetric Drug Discovery Kit (BML-AK511, 516, Enzo Life Science). For the HDAC1 enzyme activity test, human recombinant HDAC1 (BML-SE456) was used as an enzyme source, and Fluor de Lys®-“SIRT1 (BNL-KI177) was used as a substrate. A 5-fold dilution of the compound was seeded into a 96-well plate, and then 0.3 μg of the enzyme and 10 μM of the substrate were added to each well of the plate and allowed to react at 30° C. for 60 minutes. Then, Fluor de Lys®-Developer II (BML-KI176) was added thereto and allowed to react for 30 minutes, after which the fluorescence value (Ex 360, Em 460) was measured using a multi-plate reader (Flexstation 3, Molecular Device). The HDAC6 enzyme was tested using human recombinant HDAC6 (382180) (Calbiochem) according to the same protocol as the HDAC1 enzyme activity test method. Based on the resulting values, each IC5, value was calculated using GraphPad Prism4.0 program.

human recombinant HDAC6 = target: T2, human recombinant HDAC6 (Homo sapiens, UniProt Q9UBN7); assay: HDAC6 enzyme activity inhibition assay (HDAC Fluorimetric Drug Discovery Kit); assay type: biochemical; settings: for HDAC6 selectivity (fold): HDAC6 over HDAC1; for pIC50: human recombinant HDAC6, same protocol as HDAC1, read-out: HDAC6
T2 construct: purchased Calbiochem 382180
T2 sequence (Q9UBN7 1-1215): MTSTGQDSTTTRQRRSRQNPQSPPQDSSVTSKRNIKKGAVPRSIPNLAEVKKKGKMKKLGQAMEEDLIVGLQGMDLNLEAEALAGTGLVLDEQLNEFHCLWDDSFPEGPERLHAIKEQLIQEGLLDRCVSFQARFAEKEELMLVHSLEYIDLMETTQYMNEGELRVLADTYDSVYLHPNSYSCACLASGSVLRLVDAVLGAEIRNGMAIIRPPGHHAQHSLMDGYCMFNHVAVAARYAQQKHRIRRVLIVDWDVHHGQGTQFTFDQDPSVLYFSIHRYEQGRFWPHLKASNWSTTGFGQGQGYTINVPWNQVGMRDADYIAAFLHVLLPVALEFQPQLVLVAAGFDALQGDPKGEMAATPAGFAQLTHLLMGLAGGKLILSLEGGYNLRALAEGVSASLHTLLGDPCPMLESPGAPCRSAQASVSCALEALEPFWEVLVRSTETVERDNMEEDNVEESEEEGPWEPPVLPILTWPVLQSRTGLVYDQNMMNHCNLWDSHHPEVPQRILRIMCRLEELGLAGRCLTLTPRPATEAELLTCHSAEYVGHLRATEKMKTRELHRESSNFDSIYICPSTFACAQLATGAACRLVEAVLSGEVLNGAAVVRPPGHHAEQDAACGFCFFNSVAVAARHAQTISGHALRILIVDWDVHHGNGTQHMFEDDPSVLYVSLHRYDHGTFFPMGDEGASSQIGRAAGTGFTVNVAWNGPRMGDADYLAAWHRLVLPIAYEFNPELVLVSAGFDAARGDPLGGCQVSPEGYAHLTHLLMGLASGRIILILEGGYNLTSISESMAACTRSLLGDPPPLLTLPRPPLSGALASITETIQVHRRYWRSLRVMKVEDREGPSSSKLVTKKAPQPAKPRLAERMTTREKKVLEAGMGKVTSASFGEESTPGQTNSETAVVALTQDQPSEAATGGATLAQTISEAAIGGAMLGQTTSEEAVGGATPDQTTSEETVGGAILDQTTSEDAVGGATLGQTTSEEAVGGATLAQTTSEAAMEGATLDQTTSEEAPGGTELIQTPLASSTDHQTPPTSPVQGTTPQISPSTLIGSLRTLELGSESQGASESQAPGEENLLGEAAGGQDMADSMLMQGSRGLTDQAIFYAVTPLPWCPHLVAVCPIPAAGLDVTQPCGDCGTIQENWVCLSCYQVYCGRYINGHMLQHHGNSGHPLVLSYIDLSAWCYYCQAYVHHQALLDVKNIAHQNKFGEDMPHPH
Method in brief: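 Fluorimetric deacetylase assay: 5-fold serial compound dilutions, 0.3 μg recombinant human enzyme (HDAC1 or HDAC6, same protocol), 10 μM Fluor de Lys-SIRT1 substrate, 60 min at 30 °C. Signal developed 30 min, measured at 360/460 nm; IC50 values derived.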

| Compound | pIC50 (human recombinant HDAC1) | HDAC6 selectivity (fold) (human recombinant HDAC6) | pIC50 (human recombinant HDAC6) |
| --- | --- | --- | --- |
| CCN1CCN(C(=O)N(Cc2ccc(-c3nnc(C(F)(F)F)o3)cc2)c2cccc(F)c2)CC1 [Compound 21865, 4-Ethyl-N-(3-fluorophenyl)-N-(4-(5-(trifluoromethyl)-1,3,4-oxadiazol-2-yl)benzyl)piperazine-1-carboxamide] | 4.78 | 174 fold | 7.02 |
| O=C(N1CCN(CCO)CC1)N(Cc1ccc(-c2nnc(C(F)F)o2)cc1F)c1ccc(F)c(Cl)c1 [Compound 21679, N-(3-chloro-4-fluorophenyl)-N-(4-(5-(difluoromethyl)-1,3,4-oxadiazol-2-yl)-2-fluorobenzyl)-4-(2-hydroxyethyl)piperazine-1-carboxamide] | 4.63 | 675 fold | 7.47 |
| O=C(N1CCS(=O)(=O)CC1)N(Cc1ccc(-c2nnc(C(F)F)o2)cn1)c1ccc(Cl)cc1 [Compound 21831, N-(4-chlorophenyl)-N-((5-(5-(difluoromethyl)-1,3,4-oxadiazol-2-yl)pyridin-2-yl)methyl)thiomorpholine-4-carboxamide 1,1-dioxide] | 4.19 | 1538 fold | 7.38 |
| O=C(NCCN1CCN(c2noc3ccccc23)CC1)N(Cc1ccc(-c2nnc(C(F)F)o2)cc1F)c1ccccc1 [Compound 22011, 3-(2-(4-(Benzo[d]isoxazol-3-yl)piperazin-1-yl)ethyl)-1-(4-(5-(difluoromethyl)-1,3,4-oxadiazol-2-yl)-2-fluorobenzyl)-1-phenylurea] |  | 31 fold | 6.49 |
| O=C(N1CCN(C(=O)C(F)(F)F)CC1)N(Cc1ccc(-c2nnc(C(F)(F)F)o2)cc1)c1ccccc1 [Compound 21367, N-phenyl-4-(2,2,2-trifluoroacetyl)-N-(4-(5-(trifluoromethyl)-1,3,4-oxadiazol-2-yl)benzyl)piperazine-1-carboxamide] |  | 43 fold | 6.63 |
| O=C(N1CCOCC1)N(CCc1ccccc1)Cc1ccc(-c2nnc(C(F)F)o2)cc1F [Compound 21555, N-(4-(5-(difluoromethyl)-1,3,4-oxadiazol-2-yl)-2-fluorobenzyl)-N-phenethylmorpholine-4-carboxamide] |  | 26 fold | 6.41 |
| COc1ccc(N(Cc2ccc(-c3nnc(C(F)F)o3)cc2F)C(=O)N2CCN(C3COC3)CC2)cc1 [Compound 21952, N-(4-(5-(Difluoromethyl)-1,3,4-oxadiazol-2-yl)-2-fluorobenzyl)-N-(4-methoxyphenyl)-4-(oxetan-3-yl)piperazine-1-carboxamide] |  | 58 fold | 6.76 |
| O=C(N1CCCC1)N(Cc1ccc(-c2nnc(C(F)(F)F)o2)cc1)c1ccccc1 [Compound 21350, N-phenyl-N-(4-(5-(trifluoromethyl)-1,3,4-oxadiazol-2-yl)benzyl)pyrrolidine-1-carboxamide] |  | 19 fold | 6.28 |
| CC(C)(C)N1CCN(C(=O)N(Cc2ccc(-c3nnc(C(F)F)o3)cc2F)c2ccccc2)CC1 [Compound 21383, 4-(Tert-butyl)-N-(4-(5-(difluoromethyl)-1,3,4-oxadiazol-2-yl)-2-fluorobenzyl)-N-phenylpiperazine-1-carboxamide] |  | 200 fold | 7.30 |
| O=C(NCCN1CCC(F)CC1)N(Cc1ccc(-c2nnc(C(F)F)o2)cc1F)c1ccccc1 [Compound 21990, 1-(4-(5-(Difluoromethyl)-1,3,4-oxadiazol-2-yl)-2-fluorobenzyl)-3-(2-(4-fluoropiperidin-1-yl)ethyl)-1-phenylurea] |  | 100 fold | 7.00 |
| O=C(N1CCS(=O)(=O)CC1)N(Cc1ccc(-c2nnc(C(F)F)o2)nc1)c1ccc(F)c(Cl)c1 [Compound 21767, N-(3-Chloro-4-fluorophenyl)-N-((6-(5-(difluoromethyl)-1,3,4-oxadiazol-2-yl)pyridin-3-yl)methyl)thiomorpholine-4-carboxamide 1,1-dioxide] |  | 9 fold | 5.94 |
| O=C(N1CC2(CCNCC2)C1)N(Cc1ccc(-c2nnc(C(F)F)o2)cc1F)c1ccccc1 [Compound 21497, N-(4-(5-(difluoromethyl)-1,3,4-oxadiazol-2-yl)-2-fluorobenzyl)-N-phenyl-2,7-diazaspiro[3.5]nonane-2-carboxamide] |  | 294 fold | 7.47 |
| O=C(N1CCS(=O)(=O)CC1)N(Cc1ccc(-c2nnc(C(F)F)o2)cc1F)c1cccc(OC(F)(F)F)c1 [Compound 21529, N-(4-(5-(difluoromethyl)-1,3,4-oxadiazol-2-yl)-2-fluorobenzyl)-N-(3-(trifluoromethoxy)phenyl)thiomorpholine-4-carboxamide 1,1-dioxide] |  | 278 fold | 7.44 |
| O=C(N1CCN(C2COC2)CC1)N(Cc1ccc(-c2nnc(C(F)F)o2)cc1F)c1cccc(F)c1 [Compound 21937, N-(4-(5-(Difluoromethyl)-1,3,4-oxadiazol-2-yl)-2-fluorobenzyl)-N-(3-fluorophenyl)-4-(oxetan-3-yl)piperazine-1-carboxamide] |  | 153 fold | 7.19 |
| O=C(N1CCOCC1)N(Cc1ccc(-c2nnc(C(F)F)o2)cc1F)c1cccs1 [Compound 22019, N-(4-(5-(Difluoromethyl)-1,3,4-oxadiazol-2-yl)-2-fluorobenzyl)-N-(thiophen-2-yl)morpholine-4-carboxamide] |  | 79 fold | 6.90 |
| O=C(NCCN1CCN(c2ccc(Cl)c(Cl)c2)CC1)N(Cc1ccc(-c2nnc(C(F)F)o2)cc1F)c1ccccc1 [Compound 22012, 3-(2-(4-(3,4-Dichlorophenyl)piperazin-1-yl)ethyl)-1-(4-(5-(difluoromethyl)-1,3,4-oxadiazol-2-yl)-2-fluorobenzyl)-1-phenylurea] |  | 10 fold | 5.99 |
| COc1ccccc1CCN(Cc1ccc(-c2nnc(C(F)F)o2)cc1F)C(=O)N1CCN(C)CC1 [Compound 21556, N-(4-(5-(difluoromethyl)-1,3,4-oxadiazol-2-yl)-2-fluorobenzyl)-N-(2-methoxyphenethyl)-4-methylpiperazine-1-carboxamide] |  | 36 fold | 6.55 |
| CN1CCN(C(=O)N(Cc2ccc(-c3nnc(C(F)F)o3)cc2F)c2cccc(-c3ccccc3)c2)CC1 [Compound 21533, N-([1,1′-biphenyl]-3-yl)-N-(4-(5-(difluoromethyl)-1,3,4-oxadiazol-2-yl)-2-fluorobenzyl)-4-methylpiperazine-1-carboxamide] |  | 70 fold | 6.84 |
| O=C(N1CCOCC1)N(Cc1ccc(-c2nnc(C(F)(F)F)o2)cc1F)C12CC3CC(CC(C3)C1)C2 [Compound 21931, N-((3s,5s,7s)-adamantan-1-yl)-N-(2-fluoro-4-(5-(trifluoromethyl)-1,3,4-oxadiazol-2-yl)benzyl)morpholine-4-carboxamide] |  | 6 fold | 5.76 |
